Laboratory results published in PMC10387993, “New pyrimidine-N-β-D-glucosides: synthesis, biological evaluation, and molecular docking investigations” (Turkish Journal of Chemistry, 2023).
≈ marks a conversion by molar mass, not a printed value. Like-named read-outs stand apart in the source and are kept apart here.

Columns and labels:
Format in all cases: cell-based
in vitro = conditions: human, LC50
How it was run: (§1)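 Seed ~1 × 10^4 cells/well; final 200 μL. Add MTT in phenol-red-free RPMI 1640, 4 h. Solubilise formazan in DMSO + Sorenson's buffer, 30 min RT. Read 560/690 nm. ≥3 repeats.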

normal FL cells = experiment: cells; conditions: FL normal cells, MTT; for IC50: read-out: IC50; for IC (total growth inhibition): read-out: TGI
How it was run: as §1

[1] = LDH cytotoxic activity assay, HeLa; conditions: human, HeLa cells
How it was run: (§2)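 Cells grown in DMEM or RPMI 1640 with 10% FBS were seeded at about 5 × 10^3 per well in triplicate. They were exposed to 25, 50, 75 and 100 μg/mL compound for 24 h at 37 °C, 5% CO2, and LDH release was measured by absorbance at 492–630 nm.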

S. aureus ATCC 25923 = experiment: Microdilution MIC assay; conditions: S. aureus ATCC 25923, 24 h at 35 °C
How it was run: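 Read-out is visual: absence of turbidity after 24 h at 35 °C defines the MIC, the lowest such concentration in a microwell dilution series.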

[2] = LDH cytotoxic activity assay, A549; conditions: human, A549 cells; for cytotoxicity at 24 h, 25 μg/mL: A549, 25 μg/mL; for cytotoxicity at 24 h, 50 μg/mL: A549, 50 μg/mL; for cytotoxicity at 24 h, 75 μg/mL: A549, 75 μg/mL; for cytotoxicity at 24 h, 100 μg/mL: A549, 100 μg/mL
How it was run: as §2

[3] = LDH cytotoxic activity assay, FL; conditions: human, FL cells (normal cells)
How it was run: as §2

[4] = LDH cytotoxic activity assay, Hep3B; conditions: human, Hep3B cells
How it was run: as §2

[5] = LDH cytotoxic activity assay, MCF7; conditions: human, MCF7 cells; for cytotoxicity at 24 h, 25 μg/mL: MCF7, 25 μg/mL; for cytotoxicity at 24 h, 50 μg/mL: MCF7, 50 μg/mL; for cytotoxicity at 24 h, 75 μg/mL: MCF7, 75 μg/mL
How it was run: as §2

[6] = LDH cytotoxic activity assay, HT29; conditions: human, HT29 cells; for cytotoxicity at 24 h, 25 μg/mL: HT29, 25 μg/mL; for cytotoxicity at 24 h, 50 μg/mL: HT29, 50 μg/mL; for cytotoxicity at 24 h, 75 μg/mL: HT29, 75 μg/mL; for cytotoxicity at 24 h, 100 μg/mL: HT29, 100 μg/mL
How it was run: as §2

[7] = Staphylococcus aureus, ATCC25923, 24 h, read-out: MIC
[8] = as the column head prints, head prints FL

Structure (SMILES): Cc1ccc(-c2cc(-c3ccccn3)nc(N[C@@H]3O[C@H](CO)[C@@H](O)[C@H](O)[C@H]3O)n2)cc1 [Compound 7, N-[4-(4-methylphenyl)-6-pyridin-2-ylpyrimidin-2-yl]-β-D-glucopyranosylamine]
- LC50 (concentration causing 50% net cell loss) (in vitro): > 500 µg/mL
- GI50 (normal FL cells): 6.1 µg/mL (≈ 14.4 µM)
- IC50 (normal FL cells): 255 µg/mL (≈ 600 µM)
- IC (total growth inhibition) (normal FL cells): 266 µg/mL
- cytotoxicity at 24 h, 25 μg/mL [1]: 11.9%
- cytotoxicity at 24 h, 50 μg/mL [1]: 25.1%
- cytotoxicity at 24 h, 75 μg/mL [1]: 38.4%
- cytotoxicity at 24 h, 100 μg/mL [1]: 50.7%
- MIC (S. aureus ATCC 25923; [7]): 250 µg/mL (≈ 589 µM)
- cytotoxicity at 24 h, 25 μg/mL [2]: 24.3%
- cytotoxicity at 24 h, 50 μg/mL [2]: 24.4%
- cytotoxicity at 24 h, 75 μg/mL [2]: 27.4%
- cytotoxicity at 24 h, 100 μg/mL [2]: 40.6%
- cytotoxicity at 24 h, 25 μg/mL ([3]; FL): 18.1%
- cytotoxicity at 24 h, 50 μg/mL ([3]; FL): 30.5%
- cytotoxicity at 24 h, 75 μg/mL ([3]; FL): 46.5%
- cytotoxicity at 24 h, 100 μg/mL ([3]; FL): 73.2%
- cytotoxicity at 24 h, 100 μg/mL [3, 8]: 40.7%
- cytotoxicity at 24 h, 25 μg/mL [4]: 9.37%
- cytotoxicity at 24 h, 50 μg/mL [4]: 17%
- cytotoxicity at 24 h, 75 μg/mL [4]: 34.3%
- cytotoxicity at 24 h, 100 μg/mL [4]: 44.5%
- cytotoxicity at 24 h, 25 μg/mL [5]: 4.05%
- cytotoxicity at 24 h, 50 μg/mL [5]: 20.1%
- cytotoxicity at 24 h, 75 μg/mL [5]: 26.6%
- cytotoxicity at 24 h, 25 μg/mL [6]: 26%
- cytotoxicity at 24 h, 50 μg/mL [6]: 40.7%
- cytotoxicity at 24 h, 75 μg/mL [6]: 75.9%
- cytotoxicity at 24 h, 100 μg/mL [6]: 91.8%

Structure (SMILES): Cc1ccc(-c2cc(-c3cccnc3)nc(N[C@@H]3O[C@H](CO)[C@@H](O)[C@H](O)[C@H]3O)n2)cc1 [Compound 8, N-[4-(4-methylphenyl)-6-pyridin-3-ylpyrimidin-2-yl]-β-D-glucopyranosylamine]
- LC50 (concentration causing 50% net cell loss) (in vitro): > 500 µg/mL
- GI50 (normal FL cells): 5.64 µg/mL (≈ 13.3 µM)
- IC50 (normal FL cells): > 500 µg/mL
- IC (total growth inhibition) (normal FL cells): > 500 µg/mL
- cytotoxicity at 24 h, 25 μg/mL [1]: 12.5%
- cytotoxicity at 24 h, 50 μg/mL [1]: 35%
- cytotoxicity at 24 h, 75 μg/mL [1]: 42%
- cytotoxicity at 24 h, 100 μg/mL [1]: 49%
- MIC (S. aureus ATCC 25923): 15.62 µg/mL (≈ 36.8 µM)
- MIC (S. aureus ATCC 25923; [7]): 15.6 to 125 µg/mL (≈ 36.8 to 294 µM)
- cytotoxicity at 24 h, 25 μg/mL [2]: 28.1%
- cytotoxicity at 24 h, 50 μg/mL [2]: 26%
- cytotoxicity at 24 h, 75 μg/mL [2]: 47.4%
- cytotoxicity at 24 h, 100 μg/mL [2]: 58.1%
- cytotoxicity at 24 h, 25 μg/mL ([3]; FL): 20.8%
- cytotoxicity at 24 h, 50 μg/mL ([3]; FL): 34.1%
- cytotoxicity at 24 h, 75 μg/mL ([3]; FL): 41%
- cytotoxicity at 24 h, 100 μg/mL ([3]; FL): 69.9%
- cytotoxicity at 24 h, 100 μg/mL [3, 8]: 43.5%
- cytotoxicity at 24 h, 25 μg/mL [4]: 15.6%
- cytotoxicity at 24 h, 50 μg/mL [4]: 20.5%
- cytotoxicity at 24 h, 75 μg/mL [4]: 36.2%
- cytotoxicity at 24 h, 100 μg/mL [4]: 52.9%
- cytotoxicity at 24 h, 25 μg/mL [5]: 10%
- cytotoxicity at 24 h, 50 μg/mL [5]: 20.1%
- cytotoxicity at 24 h, 75 μg/mL [5]: 32.8%
- cytotoxicity at 24 h, 25 μg/mL [6]: 20.6%
- cytotoxicity at 24 h, 50 μg/mL [6]: 34.5%
- cytotoxicity at 24 h, 75 μg/mL [6]: 75.8%
- cytotoxicity at 24 h, 100 μg/mL [6]: 95.9%

Structure (SMILES): Cc1ccc(-c2cc(-c3ccncc3)nc(N[C@@H]3O[C@H](CO)[C@@H](O)[C@H](O)[C@H]3O)n2)cc1 [Compound 9, N-[4-(4-methylphenyl)-6-pyridin-4-ylpyrimidin-2-yl]-β-D-glucopyranosylamine]
- LC50 (concentration causing 50% net cell loss) (in vitro): > 500 µg/mL
- GI50 (normal FL cells): 7.04 µg/mL (≈ 16.6 µM)
- IC50 (normal FL cells): > 500 µg/mL
- IC (total growth inhibition) (normal FL cells): > 500 µg/mL
- cytotoxicity at 24 h, 25 μg/mL [1]: 10%
- cytotoxicity at 24 h, 50 μg/mL [1]: 34.3%
- cytotoxicity at 24 h, 75 μg/mL [1]: 49.6%
- cytotoxicity at 24 h, 100 μg/mL [1]: 55.9%
- MIC (S. aureus ATCC 25923; [7]): 1000 µg/mL (≈ 2360 µM)
- cytotoxicity at 24 h, 25 μg/mL [2]: 27.4%
- cytotoxicity at 24 h, 50 μg/mL [2]: 28.5%
- cytotoxicity at 24 h, 75 μg/mL [2]: 48.4%
- cytotoxicity at 24 h, 100 μg/mL [2]: 63.2%
- cytotoxicity at 24 h, 25 μg/mL ([3]; FL): 18.6%
- cytotoxicity at 24 h, 50 μg/mL ([3]; FL): 30%
- cytotoxicity at 24 h, 75 μg/mL ([3]; FL): 60.6%
- cytotoxicity at 24 h, 100 μg/mL ([3]; FL): 71%
- cytotoxicity at 24 h, 100 μg/mL [3, 8]: 36.5%
- cytotoxicity at 24 h, 25 μg/mL [4]: 16.5%
- cytotoxicity at 24 h, 50 μg/mL [4]: 24.4%
- cytotoxicity at 24 h, 75 μg/mL [4]: 41.5%
- cytotoxicity at 24 h, 100 μg/mL [4]: 49.4%
- cytotoxicity at 24 h, 25 μg/mL [5]: 11.1%
- cytotoxicity at 24 h, 50 μg/mL [5]: 19.2%
- cytotoxicity at 24 h, 75 μg/mL [5]: 27.5%
- cytotoxicity at 24 h, 25 μg/mL [6]: 25.7%
- cytotoxicity at 24 h, 50 μg/mL [6]: 40.9%
- cytotoxicity at 24 h, 75 μg/mL [6]: 74.7%
- cytotoxicity at 24 h, 100 μg/mL [6]: 81.8%
